Patent US12459957B2, “Therapeutic compounds and methods” (GENENTECH, INC., priority 2021, dated 2025)

How the values were obtained:
[1] = test system: neutrophils (PMA-stimulated ROS); assay: ROS detection assay (ROS-Glo, H2O2); type: cell-based; details: Neutrophil; human neutrophils, 30 min preincubation, 50 nM PMA for 30 min
Experimental: ROS were measured in neutrophils using the ROS-Glo bioluminescent assay (Promega) for the direct detection of H2O2. Neutrophils were isolated from fresh human blood using a biphasic Histopaque gradient as described here. Cells (100 uL per well) were plated in 96-well plates at a density of 200,000 cells/mL in high glucose DMEM medium. Cells were preincubated with either DMSO vehicle or compounds (10-point dilution curve starting at 2 uM with 3-fold serial dilution) for 30 min, and then stimulated with 50 nM PMA for 30 min. Luminescence, after the addition of H2O2 substrate solution for 20 min, and then ROS-Glo detection solution for 20 min, was recorded on a luminescence plate reader. The fifty percent inhibitory concentration (IC50) was determined with GraphPad Prism by plotting the assay output (RLU) versus the logarithm of the compound concentration using a non-linear sigmoid with variable slope algorithm with the default curve-fitting parameters in the Prism software.

[2] = test system: neutrophils (PMA-stimulated NETosis); assay: Quantification of NETosis using SYTOX Green; type: cell-based, human; details: for 5 uM (% NETosis): compound at 5 uM, NET-forming cells as percentage of total cells, vehicle 79.66, untreated 14.54
Text: Semi-automated analysis of both phase and fluorescence images of SYTOX Green-stained neutrophils used a MATLAB algorithm. Total cells were counted by scoring phase standard deviation and radial symmetry. NETosis was classified in cells by measuring the DNA area in the fluorescence image and comparing with a select internal training set for each experiment. Unstimulated cells and PMA-stimulated, pyocyanin-inhibited cells served as negative controls. PMA-stimulated cells served as a positive control. NET-forming cells are presented as a percentage of total cells.

| IC50 [1] | Compound | IC50 ([2]; Homo sapiens, Neutrophil, NETosis, SYTOX Green-stained neutrophils, PMA-stimulated) | 5 uM (% NETosis) [2] |
| --- | --- | --- | --- |
| 0.093 µM | CC(=O)Nc1ccc2c(c1)OCc1cc(-c3ccccc3)nn1C2 [Example 1, N-(2-Phenyl-4H,10H-benzo[f]pyrazolo[5,1-c][1,4]oxazepin-7-yl)acetamide] | 0.19 ± 0.03 µM | 37.78% |
| > 20 µM | c1ccc(-c2cc3n(n2)Cc2ccc(Nc4cn[nH]c4)cc2OC3)cc1 [Example 19] |  | 62.75% |
| > 20 µM | Cc1cc(Nc2ccc3c(c2)OCc2cc(-c4ccccc4)nn2C3)[nH]n1 [Example 33] |  | 69.42% |
| 1.4 µM | c1ccc(-c2cc3n(n2)Cc2ccc(Nc4ccn[nH]4)cc2OC3)cc1 [Example 36] |  | 46.06% |
| 0.51 µM | N#CCNc1ccc2c(c1)OCc1cc(-c3ccccc3)nn1C2 [Example 39] |  | 52.08% |
| > 20 µM | CC(=O)Nc1ccc2c(c1)OCc1cc(-c3cncs3)nn1C2 [Example 54] |  | 37.45% |
| 0.046 µM | CC(=O)Nc1ccc2c(c1)OCc1cc(-c3ccccc3F)nn1C2 [Example 55] |  | 36.33% |
| 2.44 µM | CC(=O)Nc1ccc2c(c1)OCc1cc(-c3cc(C)nn3C)nn1C2 [Example 58] |  | 53.96% |
| 0.192 µM | CC(=O)Nc1ccc2c(c1)OCc1cc(-c3cnn(C(F)F)c3)nn1C2 [Example 67, N-(2-(1-(difluoromethyl)-1H-pyrazol-4-yl)-4H,10H-benzo[f]pyrazolo[5,1-c][1,4]oxazepin-7-yl)acetamide] |  | 39.88% |
| 0.233 µM | CC(=O)Nc1ccc2c(c1)OCc1cc(-c3ccncc3C)nn1C2 [Example 68] |  | 43.49% |
|  | CC(=O)Nc1ccc2c(c1)OCc1cc(-c3c(C)n[nH]c3C)nn1C2 [Example 75] |  | 85.26% |
|  | CC(=O)Nc1ccc2c(c1)OCc1cc(-c3ccccc3C3CC3)nn1C2 [Example 76] |  | 63.32% |
|  | COc1ncc(-c2cc3n(n2)Cc2ccc(NC(C)=O)cc2OC3)cn1 [Example 77] |  | 86.51% |
|  | CC(=O)Nc1ccc2c(c1)OCc1cc(-c3cccc(C#N)n3)nn1C2 [Example 78] |  | 58.91% |
|  | CC(=O)Nc1ccc2c(c1)OCc1cc(-c3ccc(N4CCCC4)nc3)nn1C2 [Example 79] |  | 83.33% |
|  | CC(=O)Nc1ccc2c(c1)OCc1cc(-c3cccc(S(C)(=O)=O)c3)nn1C2 [Example 80] |  | 46.95% |
|  | CC(=O)Nc1ccc2c(c1)OCc1cc(-c3ccccc3S(C)(=O)=O)nn1C2 [Example 81] |  | 84.34% |
|  | CC(=O)Nc1ccc2c(c1)OCc1cc(-c3ccc(N(C)C(C)=O)cc3)nn1C2 [Example 82] |  | 77.67% |
|  | COc1ccc(-c2cc3n(n2)Cc2ccc(NC(C)=O)cc2OC3)c(C)c1 [Example 83] |  | 51.91% |
|  | CC(=O)Nc1ccc2c(c1)OCc1cc(-c3ccc4c(c3)NC(=O)C4)nn1C2 [Example 84] |  | 42.93% |
|  | COc1cc(-c2cc3n(n2)Cc2ccc(NC(C)=O)cc2OC3)c(OC)nn1 [Example 85] |  | 74.51% |

| IC50 [1] | Compound | IC50 ([2]; Homo sapiens, Neutrophil, NETosis, SYTOX Green-stained neutrophils, PMA-stimulated) | 5 uM (% NETosis) [2] |
| --- | --- | --- | --- |
|  | CC(=O)Nc1ccc2c(c1)OCc1cc(-c3cccc4[nH]c(=O)[nH]c34)nn1C2 [Example 86] |  | 84.35% |
|  | CC(=O)Nc1ccc2c(c1)OCc1cc(-c3ccc4[nH]c(=O)oc4c3)nn1C2 [Example 87] |  | 78.92% |
|  | CC(=O)Nc1ccc2c(c1)OCc1cc(-c3ccccc3NS(C)(=O)=O)nn1C2 [Example 88] |  | 71.64% |
|  | CC(=O)Nc1ccc2c(c1)OCc1cc(-c3cccc4c3CN(C)C4)nn1C2 [Example 89] |  | 84.44% |
|  | CC(=O)Nc1ccc2c(c1)OCc1cc(-c3cccc4c3CN(C)C4=O)nn1C2 [Example 90] |  | 78.83% |
|  | CC(=O)Nc1ccc2c(c1)OCc1cc(-c3ccnc4[nH]ccc34)nn1C2 [Example 91] |  | 77.13% |
|  | CC(=O)Nc1ccc2c(c1)OCc1cc(-c3cnn(CCN(C)C)c3)nn1C2 [Example 92] |  | 81.09% |
|  | CC(=O)Nc1ccc2c(c1)OCc1cc(-c3cnn(CC(F)(F)F)c3)nn1C2 [Example 93] |  | 73.17% |
|  | COc1cccc(C#N)c1-c1cc2n(n1)Cc1ccc(NC(C)=O)cc1OC2 [Example 94] |  | 90.90% |
|  | CC(=O)Nc1ccc2c(c1)OCc1cc(-c3ccc(S(=O)(=O)N4CCOCC4)cc3)nn1C2 [Example 95] |  | 85.90% |
|  | CC(=O)Nc1ccc2c(c1)OCc1cc(-c3ccc(S(=O)(=O)N4CCN(C)CC4)cc3)nn1C2 [Example 96] |  | 82.37% |
|  | CNS(=O)(=O)c1ccccc1-c1cc2n(n1)Cc1ccc(NC(C)=O)cc1OC2 [Example 97] |  | 81.93% |
|  | CC(=O)NCc1cc(-c2cc3n(n2)Cc2ccc(NC(C)=O)cc2OC3)ccc1F [Example 98] |  | 48.65% |
|  | CNC(=O)c1ccc(F)c(-c2cc3n(n2)Cc2ccc(NC(C)=O)cc2OC3)c1 [Example 99] |  | 84.59% |
|  | CC(=O)Nc1ccc2c(c1)OCc1cc(-c3cccc(C(=O)N(C)C)c3)nn1C2 [Example 100] |  | 85.05% |
|  | CNC(=O)c1cccc(-c2cc3n(n2)Cc2ccc(NC(C)=O)cc2OC3)c1 [Example 101] |  | 85.18% |
|  | CC(=O)Nc1ccc2c(c1)OCc1cc(-c3ccnc(NC(C)=O)c3)nn1C2 [Example 102] |  | 85.50% |
|  | CC(=O)Nc1ccc2c(c1)OCc1cc(-c3cccc(N(C)C(C)=O)c3)nn1C2 [Example 103] |  | 75.39% |
|  | CC(=O)Nc1cccc(-c2cc3n(n2)Cc2ccc(NC(C)=O)cc2OC3)c1 [Example 104] |  | 26.79% |
|  | CC(=O)Nc1ccc2c(c1)OCc1cc(-c3ccccc3NC(C)=O)nn1C2 [Example 105] |  | 70.78% |
|  | CC(=O)Nc1ccc2c(c1)OCc1cc(-c3ccc(C(=O)N4CCOCC4)cc3)nn1C2 [Example 106] |  | 86.21% |

| IC50 [1] | Compound | IC50 ([2]; Homo sapiens, Neutrophil, NETosis, SYTOX Green-stained neutrophils, PMA-stimulated) | 5 uM (% NETosis) [2] |
| --- | --- | --- | --- |
|  | CC(=O)Nc1ccc2c(c1)OCc1cc(-c3ccc(CN(C)C)cc3)nn1C2 [Example 107] |  | 85.67% |
| 0.285 µM | CC(=O)Nc1ccc2c(c1)OCc1cc(-c3cnn(C(C)C)c3)nn1C2 [Example 108] |  |  |
| 0.48 µM | CC(=O)Nc1ccc2c(c1)OCc1cc(-c3cnn(C4CC4)c3)nn1C2 [Example 109] |  |  |
| 1.58 µM | CC(=O)Nc1ccc2c(c1)OCc1cc(-c3cn(C)nc3C(F)(F)F)nn1C2 [Example 110] |  |  |
| 2.1 µM | CC(=O)Nc1ccc2c(c1)OCc1cc(-c3c[nH]nc3C(C)C)nn1C2 [Example 111] |  |  |
| 3.05 µM | CC(=O)Nc1ccc2c(c1)OCc1cc(-c3cnn(C)c3)nn1C2 [Example 112] |  |  |
| 1.46 µM | CC(=O)Nc1ccc2c(c1)OCc1cc(-c3cn(C)nc3C)nn1C2 [Example 113] |  |  |
| 0.405 µM | CCn1cc(-c2cc3n(n2)Cc2ccc(NC(C)=O)cc2OC3)cn1 [Example 114] |  |  |
| 7.75 µM | CC(=O)Nc1ccc2c(c1)OCc1cc(-c3cnn(C4CCCCO4)c3)nn1C2 (centres unmarked) [Example 115] |  |  |
| 0.204 µM | CC(=O)Nc1ccc2c(c1)OCc1cc(-c3cnn(CF)c3)nn1C2 [Example 117] |  |  |
| > 20 µM | CC(=O)Nc1ccc2c(c1)OCc1cc(-c3c[nH]nc3C3CC3)nn1C2 [Example 118] |  |  |
| 0.714 µM | CC(=O)Nc1ccc2c(c1)OCc1cc(-c3cnn(C4COC4)c3)nn1C2 [Example 119] |  |  |
| 0.346 µM | CC(=O)Nc1ccc2c(c1)OCc1cc(-c3cnn(CC(C)C)c3)nn1C2 [Example 120] |  |  |
| 0.836 µM | CC(=O)Nc1ccc2c(c1)OCc1cc(-c3cnn(C)c3C)nn1C2 [Example 121] |  |  |
| 1.2 µM | CC(=O)Nc1ccc2c(c1)OCc1cc(-c3cnn4c3CCC4)nn1C2 [Example 122] |  |  |
| 0.41 µM | CC(=O)Nc1ccc2c(c1)OCc1cc(-c3ccncc3)nn1C2 [Example 124] |  |  |
| 0.056 µM | CC(=O)Nc1ccc2c(c1)OCc1cc(-c3cnn(C(F)(F)F)c3)nn1C2 [Example 125, N-(2-(1-(trifluoromethyl)-1H-pyrazol-4-yl)-4H,10H-benzo[f]pyrazolo[5,1-c][1,4]oxazepin-7-yl)acetamide] |  |  |
| 0.529 µM | CC(=O)Nc1ccc2c(c1)OCc1cc(-c3ccnc(C)c3)nn1C2 [Example 126] |  |  |
| 1.36 µM | CC(=O)Nc1ccc2c(c1)OCc1cc(-c3cccnc3)nn1C2 [Example 127] |  |  |
| 3.1 µM | CC(=O)Nc1ccc2c(c1)OCc1cc(-c3cncnc3)nn1C2 [Example 128] |  |  |
| 0.903 µM | CC(=O)Nc1ccc2c(c1)OCc1cc(-c3ccncc3F)nn1C2 [Example 129] |  |  |
